Assay results: a melting point compilation (Tetko et al.; mined from patent text by program, amines drawn as free bases though some values may be those of a salt)

`O=C(Nc1ccc2ccc(-c3ccc(Cl)c(Cl)c3)nc2n1)c1cccc(Br)c1` showed a melting point of 176 to 178 °C. In the case of `COc1cc(OC)c2c(c1)OC(C(C)(C)C#N)CC2=O` (stereo not given), the melting point is reported as 170 °C. With `CCCCc1c(C)c2ccc(OCCCN3CCC(NC(=O)c4ccccc4)CC3)cc2oc1=O` the melting point was 170 to 171 °C. Work on `CCOC(=O)C1=C(COCCNc2nc(C(C)=O)c[nH]2)NC(C)=C(C(=O)OC)C1c1cccc(Cl)c1Cl` (stereo not given) yielded a melting point of 177 °C. `CCOC(=O)C(C#N)=CNc1nccc2c1CCCC2` gave a melting point of 116 to 120 °C. `COc1ccccc1S(=O)(=O)c1c(NS(=O)(=O)c2ccc(C(C)(C)C)cc2)ncnc1OCCOc1ncc(Br)cn1` gave a melting point of 208 °C. With `COc1ccc(OC)c(S(=O)(=O)N2CCC(N3N=C(c4ccc(OC)c(OC)c4)CCC3=O)CC2)c1` the melting point was 184 to 185 °C. Molecule `CCCc1ncc(C(=O)OCC)c(NCc2ccc(-c3ccccc3-c3nnn[nH]3)cc2)n1` has a melting point of 146 to 147 °C. Work on `CC1=C(C)C(=O)C(NCc2ccccc2)=CC1=O` yielded a melting point of 101 to 102 °C. Work on `CCOCc1nc2c(N)nc3c(c2n1CC(C)(C)OCCS(C)(=O)=O)CCCC3` yielded a melting point of 150 to 153 °C. With `Cc1c(N2CC(C)[C@@](N)(CF)C2)c(F)cc2c(=O)c(C(=O)O)cn([C@@H]3C[C@@H]3F)c12` (stereo not given in full) the melting point was 200 to 203 °C. Work on `COCCOc1ccc(CC(C)CO)c(Oc2ncc(C(F)(F)F)cc2Cl)c1` (stereo not given) yielded a melting point of 84 to 86 °C. Work on `Cc1ccc(S(=O)(=O)n2ccc3c(-c4c(-c5ccc(F)cc5)nc5ccc(N6CCN[C@H](C)C6)nn45)ccnc32)cc1` yielded a melting point of 253 to 256 °C. In the case of `CNC(=O)c1cc(C#N)cc(C)c1NC(=O)c1cc(C(F)(F)F)nn1-c1ncccc1Cl`, the melting point is reported as 214 to 216 °C. Work on `C=CCOc1ncc(F)c(O)n1` yielded a melting point of 138 to 141 °C. `Cc1onc(-c2ccccc2)c1-c1cc(F)c(S(C)(=O)=O)c(F)c1` showed a melting point of 140 to 143 °C. `OCCCC(=C(c1ccccc1)c1ccc(O)cc1)c1ccccc1` gave a melting point of 157 to 163 °C. In the case of `COc1ccccc1Oc1c(Cl)nc(-c2cccnn2)nc1NS(=O)(=O)CCc1cccc2ccccc12`, the melting point is reported as 192 °C. Molecule `COc1ccc(O[C@@H]2CN(Cc3ccccc3)C[C@H]2O)cc1` (relative stereo) has a melting point of 84 to 85 °C. With `Cn1nc(Br)c([N+](=O)[O-])c1Br` the melting point was 154 °C. `Cc1c(C)c(N2Cc3cc(Cl)c(Cl)cc3C2)c(C)c2c1OC(C)(C)C2c1ccc(C(C)C)cc1` (stereo not given) showed a melting point of 148 to 150 °C. Molecule `O=C(O)[C@@H]1C[C@@H](C(=O)O)N(C(=O)OCc2ccccc2)C1` has a melting point of 98 to 100 °C. For `Cc1cc2nc(C(=O)O)c(=O)[nH]c2cc1C`, the melting point was 276 to 285 °C. Work on `CCCCOC(=O)c1c(CSc2nccn2C)nc2cc(OC)c(OC)cc2c1-c1ccc(OC)c(OC)c1` yielded a melting point of 131 to 132 °C. For `COc1cccc2c1nc(C(F)F)n2-c1nc(Nc2ccc(Cl)nc2)nc(N2CCOCC2)n1`, the melting point was 260 to 262 °C. Molecule `COC(=O)CC(NC(=O)OC(C)(C)C)c1ccc(O)cc1` (stereo not given) has a melting point of 119 to 120 °C. In the case of `CC(C)(C)c1ccc(CCC(O)CC2CCCC2)cc1NC(=O)CC1c2ccccc2Oc2ccccc21` (stereo not given), the melting point is reported as 142 to 143 °C. `COc1ccc(C(=O)Cc2c(Cl)cncc2Cl)c2c(CC(=O)NCc3ccccc3)coc12` gave a melting point of 244 to 246 °C. `Cc1ccccc1CCNC(=O)c1c(Cl)ccc2nc(N3CCC(C(=O)O)CC3)ccc12` showed a melting point of 237 to 241 °C. In the case of `CCOC(=O)c1ccc(-c2cccc(-c3ccc4c(c3)C(C)(C)CCC4(C)C)c2OCOC)cc1`, the melting point is reported as 75 °C. `Cc1nnc(-c2ccc3occ(-c4ccc(SC(F)(F)F)cc4)c3c2)o1` gave a melting point of 170 to 171 °C. `CNC(=O)N1CC(Oc2ccccc2Cl)C1` showed a melting point of 130 to 132 °C. Molecule `Clc1cnc(N2CCNCC2)c(Cl)n1` has a melting point of 89 to 97 °C. `O=c1[nH]c2ccccc2n1CCCN1CCN(C(c2ccccc2)c2ccccc2Cl)CC1` (stereo not given) showed a melting point of 139 °C. In the case of `O=c1[nH]c2cc(-c3ccncc3)c(C(F)(F)F)nc2[nH]1`, the melting point is reported as > 300 °C. Molecule `CCOC(=O)c1ccc(C(C(N)=O)C(C)c2cc(OC)ccc2N2CCCCC2)cc1` (stereo not given) has a melting point of 131 to 132 °C. Molecule `COCC(F)Cn1ccnc1[N+](=O)[O-]` (stereo not given) has a melting point of 39 to 44 °C. In the case of `Cc1nnc(-c2ccccc2)c2nc(OCc3ncnn3C)c(C3CCC3)n12`, the melting point is reported as 160 °C. `CC(C=Cc1ccc(C(=O)O)cc1)c1ccccc1` (stereo not given) gave a melting point of 127 to 130 °C. For `O=C(Nc1ccc(-n2nc(C(F)(F)F)cc2C(F)(F)F)cc1)C1CC1c1ccccc1` (stereo not given), the melting point was 176 to 178 °C. Work on `CCC(C)(C)NC(Nc1ccc2ncsc2c1)=C(C#N)S(C)(=O)=O` yielded a melting point of 112 to 114 °C. Molecule `O=C1N[C@@H](Cc2ccccc2)[C@@H](COS(=O)(=O)c2ccc([N+](=O)[O-])cc2)O1` has a melting point of 148 to 150 °C. In the case of `Nc1nc(OCc2ccccc2)c2ncn(CCC3COP(=O)(OCc4ccccc4)OC3)c2n1` (stereo not given), the melting point is reported as 162 to 166 °C. `Cc1cc(F)ccc1-c1nc(NCCNC(=O)Nc2ccccc2)nc2c1ccc(=O)n2-c1c(F)cccc1F` gave a melting point of 142 to 148 °C. Work on `CCCc1c(OCCCOc2cc(NC(=O)C(=O)O)c(C)cc2Cl)ccc(C(C)=O)c1O` yielded a melting point of 188 to 189 °C. Work on `CSc1c(F)cc(CC(=O)c2ccccc2)cc1F` yielded a melting point of 71.8 to 71.9 °C. For `CCCCCNC(=O)c1ccc(N2CCC(N3C(=O)C(F)(F)c4ccccc43)CC2)nn1`, the melting point was 100 to 102 °C. For `CC(C)(C)c1ccc(-c2csc(-c3cccc(C(=O)O)c3)n2)cc1`, the melting point was 250 to 251 °C. With `Nc1cc(N2CCN(C(=O)COc3cccc4ccccc34)CC2)nc(N)n1` the melting point was 205 to 210 °C. With `COc1cccc2c1OC(CN1CCC(NC(=O)Nc3ccccc3)CC1)CC2` (stereo not given) the melting point was 163 °C. Molecule `O=C(O)c1cc2ccc3[nH]ccc3c2[nH]1` has a melting point of 248 to 250 °C. In the case of `CCCCCCCCCCCCCCc1ccc(OCC2COC(C)(C)O2)cc1` (stereo not given), the melting point is reported as 52 to 53 °C. For `CC1(C(=O)O)CCc2c(C(=O)c3ccc(Cl)cc3)cccc21` (stereo not given), the melting point was 146 to 150 °C. Work on `Nc1cc(NS(=O)(=O)CCl)c(Cl)cc1F` yielded a melting point of 104 to 106 °C. Molecule `Cc1nc2cnc3ccccc3c2n1Cc1ccc(Cl)cc1` has a melting point of 183 to 185 °C. With `CCc1cn2ccc(NC(=O)c3cc4cc(C(F)(F)F)cnc4n3Cc3cccc(F)c3)cc2n1` the melting point was 264 to 265 °C. `CCc1nc2c(N)nc3ccccc3c2n1CCCCNS(C)(=O)=O` gave a melting point of 198 to 200 °C. Molecule `CCCCCC(C)N(Cc1ccc(CC(C)(C)C)s1)C(Nc1ccc(OC)cc1OC)=C1C(=O)OC(C)(C)OC1=O` (stereo not given) has a melting point of 152 to 153 °C. In the case of `FC(F)(F)c1cccc(-c2ccnc(Nc3ccc4c(c3)OCCO4)c2)c1`, the melting point is reported as 139 to 140 °C. `CCOC(=O)C(=O)N1Cc2cc(OC)ccc2C(Cc2c(Cl)cncc2Cl)=N1` showed a melting point of 140 to 142 °C. Molecule `Cc1[nH]c(C)c(-c2ccc(Oc3ccc(C(F)(F)F)cc3)cc2)c(=O)c1Br` has a melting point of 304 to 305 °C. `Nc1c(F)c(N2C[C@@H]3CCCN[C@@H]3C2)c(F)c2c1c(=O)c(C(=O)O)cn2[C@@H]1C[C@@H]1F` gave a melting point of 145 to 149 °C. For `O=CNc1ccccc1C(=O)Nc1nnn[nH]1`, the melting point was 247 to 248 °C. In the case of `Clc1ccc2oc(-c3ccccc3)cc2c1`, the melting point is reported as 140 to 143 °C. Molecule `CCOC(=O)COc1ccc(C2=NNC(=O)NC2C)cc1` (stereo not given) has a melting point of 152 to 153 °C. Work on `Cn1cnc(COc2nn3c(-c4cccc(F)c4)nnc3cc2-c2ccccc2)n1` yielded a melting point of 250 to 251 °C. In the case of `C=C1CN(c2ccccc2)C1=O`, the melting point is reported as 57 to 58 °C. `Cc1ccc(-c2cc(C(=O)O)nn2Cc2ccc(C)c(Cl)c2)cc1` showed a melting point of 108 °C. For `O=C(O)CS(=O)(=O)c1cc(NS(=O)(=O)c2cccs2)c2ccccc2c1O`, the melting point was 190 to 192 °C. `NC(=S)c1ncn2c1[C@@H]1CCCN1C(=O)c1c(Cl)cccc1-2` gave a melting point of 247 to 248 °C. `CC(C)(C)OC(=O)c1ccc(C(=O)OC(C)(C)C)cc1` gave a melting point of 117 to 118 °C. Molecule `Clc1nn2c(-c3ccccc3Br)nnc2c2ccccc12` has a melting point of 203 °C. `CCc1nnc(C(Cc2ccc(OCCc3nc(-c4ccccc4)oc3C)cc2)c2ccccc2)o1` (stereo not given) showed a melting point of 110 °C. For `N[C@@]1(C(=O)O)C[C@H](NC(=O)Nc2ccccc2F)[C@H]2[C@H](C(=O)O)[C@H]21` (relative stereo), the melting point was > 270 °C. In the case of `CSc1cc(C)c2ccc(N)nc2n1`, the melting point is reported as 204 to 209 °C. For `Nc1c(F)c(N2CCC(=NO)CC2)c(F)c2c1c(=O)c(C(=O)O)cn2C1CC1`, the melting point was 298 to 300 °C. Molecule `CNc1nc2ccc(CCc3nc4cc(OC)ccn4c3C)cc2o1` has a melting point of 203 to 205 °C. Work on `O=C(c1ccc(Cl)cc1)n1cc(Cc2cc(=O)n(C3CCCCC3)[nH]2)c2ccccc21` yielded a melting point of 109 to 111 °C. `N=c1[nH]ccn1Cc1ccc(Cl)nc1` showed a melting point of 188 °C. Molecule `Cc1cc(O)c(C)cc1O` has a melting point of 60 to 62 °C. `Cc1ccc(F)cc1C(=O)Nc1ccc(C(=O)N2CCc3cn[nH]c3-c3sccc32)c(Cl)c1` showed a melting point of 310 to 312 °C. For `COc1cc2c(c(OC)c1OC)C(=O)C(CCCCCCC1Cc3cc(OC)c(OC)c(OC)c3C1=O)C2` (stereo not given), the melting point was 129 to 130 °C. `COC(=O)C#CC(=O)c1ccc(F)cc1` showed a melting point of 62 to 63 °C. Molecule `CC(C)Oc1ccccc1-c1cc(=O)c2cc(C#N)ccc2o1` has a melting point of 172 to 175 °C. `CC(C)(C)OC(=O)N1CCN(CC(=O)Nc2ccc(CC#N)cc2)CC1` showed a melting point of 137 to 138 °C. Work on `O=C(NCc1cccnc1)C1Oc2ccc(Cl)cc2Cc2cc(Cl)ccc2O1` yielded a melting point of 225 to 226 °C. `CNc1ncc2c(n1)N(c1ccccc1)C(=O)N(c1c(Cl)cccc1Cl)C2` gave a melting point of 211 to 213 °C. Work on `COC(=O)C(=CNc1c(-c2ccccc2)csc1C(=O)O)SC` yielded a melting point of 90 to 92 °C. In the case of `Cc1c(CCN(C)C(=O)OC(C)(C)C)c2cc(S(=O)(=O)c3cccc4ccccc34)ccc2n1C`, the melting point is reported as 176 to 178 °C. With `COC(=O)c1cccc2cc(C)n(Cc3ccc(-c4ccccc4-c4nnn[nH]4)cc3)c12` the melting point was 180 to 182 °C. With `COC(=O)CCCc1cccc(NC(=O)[C@@H](CSC(C)=O)Cc2ccccc2)c1` the melting point was 87 to 88.5 °C. `CSc1cccc2c1Sc1ccc(O)cc1N2` showed a melting point of 188 to 190 °C. Work on `NC(=O)c1ccccc1-c1n[nH]c(-c2ccccc2)n1` yielded a melting point of 222 to 225 °C. Work on `CSC1N=C(N)C=C(Cl)N1c1c([N+](=O)[O-])cc(C(F)(F)F)c(Cl)c1[N+](=O)[O-]` (stereo not given) yielded a melting point of 171 to 175 °C. In the case of `CCOC(=O)c1c(CCCN(CC)CC)nc2cc(OC)c(OC)cc2c1-c1ccc(OC)c(OC)c1`, the melting point is reported as 96 to 98 °C.
